Data taken from patent US20130203146A1, “MICROFABRICATED SCAFFOLD STRUCTURES” (priority 2010, published 2013).

Test system: HUVECs
Test: Cytotoxicity of [Rull(bpy)3]^2+ on HUVECs (MTT assay)
Type: cell-based, human
Experimental: FIG. 3 is a graph illustrative of the effect of [Rull(bpy)3]^2+ concentration on the viability of HUVECs. Absorbance of the MTT assay was determined at 490 nm.
HUVECs (CRL-2873™) thawed from cryopreservation was cultured in Endogro Supplement medium kit (Millipore) supplemented with 1% penicillin streptomycin. Cells were recovered from tissue culture dishes/T25 flask with 0.05% trypsin-ethylenediaminetetraacetic acid (EDTA) in PBS. The cells were routinely passaged at 1/5 confluency. All cells were incubated at 37° C. in a humidified, 5% CO2 atmosphere.

[Cl-].[Cl-].[Ru+2].c1ccc(-c2ccccn2)nc1.c1ccc(-c2ccccn2)nc1.c1ccc(-c2ccccn2)nc1 [[Rull(bpy)3]^2+, ruthenium II trisbipyridyl chloride [RuII(bpy)3]^2+]
safe range of [Rull(bpy)3]^2+ concentrations (HUVECs, MTT assay, absorbance at 490 nm): 0.5 to 3.5 mM | viability of HUVECs (higher [Rull(bpy)3]^2+ concentration than the safe range, lower absorbance at 490 nm): reduce the viability of HUVECs
